Assay results taken from article PMC6193938, “Characterization of a novel AICARFT inhibitor which potently elevates ZMP and has anti-tumor activity in murine models” (Scientific Reports, 2018).

Columns and labels:
TRKA = molecular target: T1, TRKA (Homo sapiens, UniProt P04629); test: CEREP protein kinase assay; format: biochemical
T1 construct: purchased CEREP Panlabs (Eurofins)

IRK = molecular target: T2, IRK (Homo sapiens, UniProt P06213); test: CEREP protein kinase assay; format: biochemical
T2 construct: purchased CEREP Panlabs (Eurofins)

ERK2 = molecular target: T3, ERK2 (Homo sapiens, UniProt P28482); test: CEREP protein kinase assay; format: biochemical
T3 construct: purchased CEREP Panlabs (Eurofins)

NCI-H460 xenograft = test: Antitumor efficacy and tumor metabolites, mouse xenograft, normal folate diet; format: in vivo; details: NCI-H460 tumors; after 13 days of treatment; normal chow
FGFR3 = molecular target: T4, FGFR3 (Homo sapiens, UniProt P22607); test: CEREP protein kinase assay; format: biochemical
T4 construct: purchased CEREP Panlabs (Eurofins)

A9 murine cell line = test: In vitro proliferation assay (Alamar Blue); format: cell-based
Experimental: (§1) Cells lines were acquired from cell banks, see supplemental material, grown using the cell banks recommended culture conditions (Supplemental Table 3). In some experiments noted “low folate” the cells were washed and grown in folate free RPMI-1640 media (Gibco #27016-021) supplemented with 5 ml 1 M Hepes, 5 ml 100 mM Na pyruvate, 2.5 mg/ml glucose and 10% defined FBS (Hyclone #SH30070) per 500 mL media for 5–7 days to deplete intracellular folate levels prior to the start of the experiment. Where noted, cells were maintained in complete “high folate” RPMI-1640 media (ATCC #30-2001) with 10% defined FBS to contrast with the low folate conditions.
(§2) Cells were cultured using recommended culture conditions unless noted otherwise (Supplemental Table 3). Cells were plated, dosed with compound and incubated at 37 °C for approximately 2 doubling times as determined for each cell line. Cell Titer Glo (Promega) assay was used to measure proliferation according to manufacturer’s recommendations by measuring luminescence with Flexstation3 (Molecular Devices) with 500 ms integration time. […]
(§3) For a limited number of cell lines, compound dosing was performed under high or low folate conditions with cell viability being determined with Alamar Blue rather than an ATP dependent assay. […] The % inhibition for each sample was calculated and fit as described above.

PDGFRa = molecular target: T5, PDGFRa (Homo sapiens, UniProt P16234); test: CEREP protein kinase assay; format: biochemical
T5 construct: purchased CEREP Panlabs (Eurofins)

AMPKA = test: CEREP protein kinase assay; format: biochemical
PIM1 = molecular target: T6, PIM1 (Homo sapiens, UniProt P11309); test: CEREP protein kinase assay; format: biochemical
T6 construct: purchased CEREP Panlabs (Eurofins)

EGFR = molecular target: T7, EGFR (Homo sapiens, UniProt P00533); test: CEREP protein kinase assay; format: biochemical
T7 construct: purchased CEREP Panlabs (Eurofins)

RON = molecular target: T8, RON (Homo sapiens, UniProt Q04912); test: CEREP protein kinase assay; format: biochemical
T8 construct: purchased CEREP Panlabs (Eurofins)

IGF1R = molecular target: T9, IGF1R (Homo sapiens, UniProt P08069); test: CEREP protein kinase assay; format: biochemical
T9 construct: purchased CEREP Panlabs (Eurofins)

P38a = molecular target: T10, P38a (Homo sapiens, UniProt Q16539); test: CEREP protein kinase assay; format: biochemical
T10 construct: purchased CEREP Panlabs (Eurofins)

cell lines of Table 1 = test: Alamar Blue proliferation assay, average over cell lines; format: cell-based; details: Homo sapiens
Experimental: as §1, §2, §3

TAK1 = molecular target: T11, TAK1 (Homo sapiens, UniProt O43318); test: CEREP protein kinase assay; format: biochemical
T11 construct: purchased CEREP Panlabs (Eurofins)
T11 sequence (O43318 1-303 limits assumed): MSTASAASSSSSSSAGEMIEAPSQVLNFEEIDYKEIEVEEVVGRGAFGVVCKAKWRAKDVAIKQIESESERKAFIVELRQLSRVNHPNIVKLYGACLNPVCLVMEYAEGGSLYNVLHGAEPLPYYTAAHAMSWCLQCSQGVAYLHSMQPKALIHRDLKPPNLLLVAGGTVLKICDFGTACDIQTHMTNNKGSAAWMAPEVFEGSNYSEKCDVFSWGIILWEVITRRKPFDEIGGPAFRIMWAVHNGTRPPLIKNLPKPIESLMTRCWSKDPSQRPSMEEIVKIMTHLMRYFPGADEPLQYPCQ
T11 sequence (Q15750 437-504 partner limits assumed): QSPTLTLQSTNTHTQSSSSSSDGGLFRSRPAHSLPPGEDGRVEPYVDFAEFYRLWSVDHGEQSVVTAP

HER2 = molecular target: T12, HER2 (Homo sapiens, UniProt P04626); test: CEREP protein kinase assay; format: biochemical
T12 construct: purchased CEREP Panlabs (Eurofins)

A9 tumor = test: Antitumor efficacy and tumor metabolites, A9 tumor model; format: in vivo, mouse; details: A9 tumors
PLK3 = molecular target: T13, PLK3 (Homo sapiens, UniProt Q9H4B4); test: CEREP protein kinase assay; format: biochemical
T13 construct: purchased CEREP Panlabs (Eurofins)

T7 sequence (P00533 25-1210): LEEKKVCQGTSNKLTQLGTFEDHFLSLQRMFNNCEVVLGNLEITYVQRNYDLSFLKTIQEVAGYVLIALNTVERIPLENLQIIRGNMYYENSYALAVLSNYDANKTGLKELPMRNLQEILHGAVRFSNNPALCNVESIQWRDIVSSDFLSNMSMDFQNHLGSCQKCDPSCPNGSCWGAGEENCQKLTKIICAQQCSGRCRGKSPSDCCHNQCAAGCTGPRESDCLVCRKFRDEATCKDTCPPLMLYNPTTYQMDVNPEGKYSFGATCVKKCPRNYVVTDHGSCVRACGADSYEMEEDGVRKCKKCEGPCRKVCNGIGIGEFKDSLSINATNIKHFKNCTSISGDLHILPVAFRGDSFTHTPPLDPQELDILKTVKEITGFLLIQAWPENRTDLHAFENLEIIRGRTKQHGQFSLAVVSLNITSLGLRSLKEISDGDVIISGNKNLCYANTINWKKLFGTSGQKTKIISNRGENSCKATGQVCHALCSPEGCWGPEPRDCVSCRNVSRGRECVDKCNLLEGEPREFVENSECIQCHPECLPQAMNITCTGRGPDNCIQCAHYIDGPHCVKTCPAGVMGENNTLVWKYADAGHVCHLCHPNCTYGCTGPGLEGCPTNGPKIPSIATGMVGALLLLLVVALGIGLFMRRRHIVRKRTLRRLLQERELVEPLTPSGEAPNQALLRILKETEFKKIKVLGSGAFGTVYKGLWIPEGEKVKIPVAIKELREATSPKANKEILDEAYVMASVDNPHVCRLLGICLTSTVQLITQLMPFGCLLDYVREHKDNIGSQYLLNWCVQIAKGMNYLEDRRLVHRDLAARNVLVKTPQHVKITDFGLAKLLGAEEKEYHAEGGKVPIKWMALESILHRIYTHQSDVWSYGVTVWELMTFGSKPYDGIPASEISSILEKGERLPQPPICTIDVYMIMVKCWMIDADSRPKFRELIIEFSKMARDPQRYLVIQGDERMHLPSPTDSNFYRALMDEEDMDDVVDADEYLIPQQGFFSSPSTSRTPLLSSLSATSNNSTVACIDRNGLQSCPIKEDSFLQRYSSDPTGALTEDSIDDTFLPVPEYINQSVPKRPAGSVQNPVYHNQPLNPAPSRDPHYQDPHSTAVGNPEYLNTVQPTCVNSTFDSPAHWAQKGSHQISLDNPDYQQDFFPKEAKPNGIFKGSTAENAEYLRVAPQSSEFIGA
T4 sequence (P22607 23-806): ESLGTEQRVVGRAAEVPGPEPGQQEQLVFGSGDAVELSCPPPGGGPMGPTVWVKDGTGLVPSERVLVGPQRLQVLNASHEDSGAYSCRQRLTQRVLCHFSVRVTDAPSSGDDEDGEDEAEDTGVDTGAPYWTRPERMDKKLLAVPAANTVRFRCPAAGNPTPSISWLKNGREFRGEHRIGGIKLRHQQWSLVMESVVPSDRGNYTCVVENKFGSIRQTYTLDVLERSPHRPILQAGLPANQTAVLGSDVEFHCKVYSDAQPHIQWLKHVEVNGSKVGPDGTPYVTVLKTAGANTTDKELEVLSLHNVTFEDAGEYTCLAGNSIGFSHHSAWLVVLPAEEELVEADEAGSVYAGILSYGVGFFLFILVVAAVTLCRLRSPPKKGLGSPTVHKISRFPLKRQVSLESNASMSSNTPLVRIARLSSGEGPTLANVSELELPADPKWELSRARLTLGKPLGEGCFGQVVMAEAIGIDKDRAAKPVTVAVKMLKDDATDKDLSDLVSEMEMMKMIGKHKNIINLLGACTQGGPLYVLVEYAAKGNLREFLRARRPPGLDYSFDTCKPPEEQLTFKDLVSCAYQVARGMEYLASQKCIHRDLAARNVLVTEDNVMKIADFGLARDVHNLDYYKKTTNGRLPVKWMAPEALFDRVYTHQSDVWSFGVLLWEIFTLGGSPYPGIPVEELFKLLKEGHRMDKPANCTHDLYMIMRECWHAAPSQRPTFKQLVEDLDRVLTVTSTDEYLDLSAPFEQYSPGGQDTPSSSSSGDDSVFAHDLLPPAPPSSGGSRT
T6 sequence (P11309 whole entry): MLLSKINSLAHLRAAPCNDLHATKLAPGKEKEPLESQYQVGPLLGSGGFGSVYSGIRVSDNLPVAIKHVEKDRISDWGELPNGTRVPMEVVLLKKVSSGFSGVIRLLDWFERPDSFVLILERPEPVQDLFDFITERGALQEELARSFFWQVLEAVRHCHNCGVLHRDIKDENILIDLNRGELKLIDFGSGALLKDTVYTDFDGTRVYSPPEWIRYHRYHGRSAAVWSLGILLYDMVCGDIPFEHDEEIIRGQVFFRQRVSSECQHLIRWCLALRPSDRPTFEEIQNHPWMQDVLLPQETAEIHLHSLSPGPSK
T9 sequence (P08069 31-1367): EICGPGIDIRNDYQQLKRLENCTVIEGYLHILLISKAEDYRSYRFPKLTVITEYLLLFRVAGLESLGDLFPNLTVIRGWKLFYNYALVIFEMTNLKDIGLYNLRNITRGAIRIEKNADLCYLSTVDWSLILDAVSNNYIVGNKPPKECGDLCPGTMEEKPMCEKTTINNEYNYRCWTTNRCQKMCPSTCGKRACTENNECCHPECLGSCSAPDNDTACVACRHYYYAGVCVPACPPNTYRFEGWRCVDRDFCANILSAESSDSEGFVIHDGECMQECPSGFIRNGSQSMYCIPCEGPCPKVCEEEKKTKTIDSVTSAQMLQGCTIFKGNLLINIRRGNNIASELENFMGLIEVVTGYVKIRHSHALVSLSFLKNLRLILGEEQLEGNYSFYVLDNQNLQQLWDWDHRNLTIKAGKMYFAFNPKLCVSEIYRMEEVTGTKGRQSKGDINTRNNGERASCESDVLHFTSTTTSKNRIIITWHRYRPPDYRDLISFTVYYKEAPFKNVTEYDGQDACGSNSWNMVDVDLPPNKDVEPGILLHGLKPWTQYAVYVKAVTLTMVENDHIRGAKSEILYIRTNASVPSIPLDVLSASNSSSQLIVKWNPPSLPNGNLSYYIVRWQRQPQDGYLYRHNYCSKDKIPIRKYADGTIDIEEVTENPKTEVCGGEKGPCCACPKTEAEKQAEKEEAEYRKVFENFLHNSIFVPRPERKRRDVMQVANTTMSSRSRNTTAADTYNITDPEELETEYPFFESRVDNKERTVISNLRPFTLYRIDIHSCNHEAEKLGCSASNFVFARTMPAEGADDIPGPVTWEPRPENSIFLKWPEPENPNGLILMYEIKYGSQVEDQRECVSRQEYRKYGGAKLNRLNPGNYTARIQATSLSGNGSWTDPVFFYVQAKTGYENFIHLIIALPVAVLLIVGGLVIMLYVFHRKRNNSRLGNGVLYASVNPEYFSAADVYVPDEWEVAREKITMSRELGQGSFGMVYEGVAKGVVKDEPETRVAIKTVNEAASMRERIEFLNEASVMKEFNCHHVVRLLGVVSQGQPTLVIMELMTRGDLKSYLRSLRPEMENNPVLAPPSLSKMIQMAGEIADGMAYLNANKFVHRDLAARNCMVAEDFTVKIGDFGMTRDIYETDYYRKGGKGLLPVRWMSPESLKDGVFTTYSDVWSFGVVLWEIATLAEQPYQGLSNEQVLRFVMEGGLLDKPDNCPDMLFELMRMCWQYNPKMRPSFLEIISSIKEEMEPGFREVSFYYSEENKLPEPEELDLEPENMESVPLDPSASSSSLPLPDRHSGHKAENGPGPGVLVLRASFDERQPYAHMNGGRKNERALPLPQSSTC
T2 sequence (P06213 28-1382): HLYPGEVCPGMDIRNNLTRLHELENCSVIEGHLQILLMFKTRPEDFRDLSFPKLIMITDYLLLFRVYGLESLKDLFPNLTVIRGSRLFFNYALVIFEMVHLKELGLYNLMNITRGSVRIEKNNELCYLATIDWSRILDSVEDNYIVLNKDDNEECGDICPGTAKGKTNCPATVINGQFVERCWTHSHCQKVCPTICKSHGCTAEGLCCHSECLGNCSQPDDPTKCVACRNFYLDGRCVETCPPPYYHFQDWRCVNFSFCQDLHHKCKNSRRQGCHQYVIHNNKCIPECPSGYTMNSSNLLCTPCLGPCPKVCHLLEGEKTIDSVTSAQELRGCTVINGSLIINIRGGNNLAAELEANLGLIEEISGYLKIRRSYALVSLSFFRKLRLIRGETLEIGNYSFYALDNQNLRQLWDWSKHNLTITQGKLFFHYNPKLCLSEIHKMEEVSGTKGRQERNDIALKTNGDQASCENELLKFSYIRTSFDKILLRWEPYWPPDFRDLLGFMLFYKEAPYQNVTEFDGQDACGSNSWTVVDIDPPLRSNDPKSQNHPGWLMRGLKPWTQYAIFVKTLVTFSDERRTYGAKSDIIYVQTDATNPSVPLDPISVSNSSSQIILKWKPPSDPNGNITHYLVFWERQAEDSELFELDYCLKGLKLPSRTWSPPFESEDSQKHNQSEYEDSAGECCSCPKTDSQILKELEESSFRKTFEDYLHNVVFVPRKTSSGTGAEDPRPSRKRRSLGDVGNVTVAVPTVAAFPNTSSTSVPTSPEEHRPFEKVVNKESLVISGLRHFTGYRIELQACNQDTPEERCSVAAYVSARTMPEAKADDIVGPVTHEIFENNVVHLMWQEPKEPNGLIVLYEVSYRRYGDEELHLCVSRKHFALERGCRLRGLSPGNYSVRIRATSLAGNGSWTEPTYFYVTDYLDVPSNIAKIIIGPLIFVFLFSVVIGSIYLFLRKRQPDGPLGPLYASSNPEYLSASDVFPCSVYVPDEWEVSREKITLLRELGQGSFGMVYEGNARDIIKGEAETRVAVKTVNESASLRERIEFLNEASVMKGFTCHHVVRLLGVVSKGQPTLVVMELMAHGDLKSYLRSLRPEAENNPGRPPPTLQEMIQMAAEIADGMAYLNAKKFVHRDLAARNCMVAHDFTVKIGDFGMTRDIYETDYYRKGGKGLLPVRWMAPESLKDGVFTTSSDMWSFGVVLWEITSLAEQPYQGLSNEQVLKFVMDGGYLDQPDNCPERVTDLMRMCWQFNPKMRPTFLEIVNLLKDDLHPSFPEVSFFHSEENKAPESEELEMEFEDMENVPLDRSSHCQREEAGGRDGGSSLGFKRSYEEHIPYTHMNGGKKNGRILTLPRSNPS

O=c1[nH]ccc2cc(F)c(NS(=O)(=O)c3ccc(N4CC[C@@H](O)C4)s3)cc12 [LSN3213128, N-(6-Fluoro-1-oxo-1,2-dihydroisoquinolin-7-yl)-5-[(3R)-3-hydroxypyrrolidin-1-yl]thiophene-2-sulfonamide]
inhibition at 0.2 µM (TRKA; @ 0.2 uM): -1.15% | inhibition at 2 µM (TRKA; @ 2 uM): 8.27% | inhibition at 20 µM (TRKA; @ 20 uM): 10.1% | inhibition at 0.2 µM (IRK; @ 0.2 uM): -0.8% | inhibition at 2 µM (IRK; @ 2 uM): 10.6% | inhibition at 20 µM (IRK; @ 20 uM): 12.9% | inhibition at 0.2 µM (ERK2; @ 0.2 uM): -4.25% | inhibition at 2 µM (ERK2; @ 2 uM): 11.1% | inhibition at 20 µM (ERK2; @ 20 uM): 60.3% | tumor ZMP levels (NCI-H460 xenograft): dramatically elevated | tumor dUMP levels (NCI-H460 xenograft): remained constant | inhibition at 0.2 µM (FGFR3; @ 0.2 uM): 3.62% | inhibition at 2 µM (FGFR3; @ 2 uM): 13.2% | inhibition at 20 µM (FGFR3; @ 20 uM): 47% | IC50 (A9 murine cell line; Mus musculus, RPMI media): 230 nM | anti-proliferative effect on hypoxanthine supplementation (A9 murine cell line; hypoxanthine): not reversed | inhibition at 0.2 µM (PDGFRa; @ 0.2 uM): -10.5% | inhibition at 2 µM (PDGFRa; @ 2 uM): 12.3% | inhibition at 20 µM (PDGFRa; @ 20 uM): 44.9% | % Inhibition (AMPKA; @ 0.2 uM): -3.69 (26.6, n=2) % | % Inhibition (AMPKA; @ 2 uM): 9.14 (16.7, n=2) % | % Inhibition (AMPKA; @ 20 uM): 9.08 (3.34, n=2) % | inhibition at 0.2 µM (PIM1; @ 0.2 uM): 7.96% | inhibition at 2 µM (PIM1; @ 2 uM): 13.3% | inhibition at 20 µM (PIM1; @ 20 uM): 26.5% | inhibition at 0.2 µM (EGFR; @ 0.2 uM): -11.7% | inhibition at 2 µM (EGFR; @ 2 uM): 2.87% | inhibition at 20 µM (EGFR; @ 20 uM): -0.46% | inhibition at 0.2 µM (RON; @ 0.2 uM): -17.2% | inhibition at 2 µM (RON; @ 2 uM): -11.8% | inhibition at 20 µM (RON; @ 20 uM): 33.9% | inhibition at 0.2 µM (IGF1R; @ 0.2 uM): -0.761% | inhibition at 2 µM (IGF1R; @ 2 uM): 6.61% | inhibition at 20 µM (IGF1R; @ 20 uM): 60.3% | inhibition at 0.2 µM (P38a; @ 0.2 uM): -2.24% | inhibition at 2 µM (P38a; @ 2 uM): -2.52% | inhibition at 20 µM (P38a; @ 20 uM): 32.3% | GI50 (cell lines of Table 1; low folate, 12 cell lines): 4.4 ± 4.5 nM | GI50 (cell lines of Table 1; regular RPMI, 11 cell lines): 2400 nM | inhibition at 0.2 µM (TAK1; @ 0.2 uM): -0.355% | inhibition at 2 µM (TAK1; @ 2 uM): 4.6% | inhibition at 20 µM (TAK1; @ 20 uM): 19.3% | inhibition at 0.2 µM (HER2; @ 0.2 uM): 6.55% | inhibition at 2 µM (HER2; @ 2 uM): 12.4% | inhibition at 20 µM (HER2; @ 20 uM): 9.08% | tumor dUMP (A9 tumor; 100 mg/kg QDx12 dose group): 0.72 ± 0.41 µM | tumor ZMP levels (A9 tumor; after 12 days of dosing, 100 mg/kg): dramatically elevated | inhibition at 0.2 µM (PLK3; @ 0.2 uM): 13.4% | inhibition at 2 µM (PLK3; @ 2 uM): 12% | inhibition at 20 µM (PLK3; @ 20 uM): 60.5%
